Source: PubChem BioAssay (NCI)
Values joined by “and” are separate entries in the source; they are usually repeats but may differ in a detail not shown here. Equal entries are not always repeated.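 These data come from cells grown in 96-well plates and exposed to compound for 48 hours at five concentrations. Here, GI50 denotes the concentration required for 50% inhibition of growth. The concentration for full growth arrest is given as TGI.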

Legend:
Assay in all cases: DTP human tumour cell line panel, 48 h
DMS 273 small cell lung = system: DMS 273 small cell lung
LXFL 529 NSCLC = system: LXFL 529 NSCLC
RXF-631 renal = system: RXF-631 renal
XF 498 CNS = system: XF 498 CNS
MDA-MB-231 breast = system: MDA-MB-231 breast
MDA-MB-435 = system: MDA-MB-435
MDA-N = system: MDA-N
PC-3 prostate = system: PC-3 prostate
T-47D breast = system: T-47D breast

Row | Structure (SMILES) | TGI (DMS 273 small cell lung) [µM] | TGI (LXFL 529 NSCLC) | TGI (RXF-631 renal) | TGI (XF 498 CNS) [µM] | further results
1 | N#CCCN(CCC#N)c1ccc(/C=C(/NC(=O)c2cc([N+](=O)[O-])ccc2Cl)C(=O)N=[N+]=[N-])cc1 | > 100 | > 100 µM | > 100 µM |  | 
2 | CCOC(=O)c1oc2c(OC)ccc3c2c1CCC3 | > 100 | > 100 µM | > 100 µM | > 100 | 
3 | NC1=NN(c2ccccc2)C(=O)C1C(=O)C(=O)Nc1ccc(Cl)cc1 (configuration not stated) | > 100 | > 100 µM | > 100 µM |  | 
4 | CCCCCCCCSC(=O)NCCCC | > 100 | > 100 µM | > 100 µM | 47.2 | 
5 | CC12Nc3ccccc3C1=C(c1ccccc1)CC1C(=O)OC(=O)C12 (configuration not stated) | > 100 | > 100 µM | > 100 µM | > 100 | 
6 | C[C@H]1CCC/C=C/C2CC(OC(=O)CN(C)C)CC2C(OC(=O)CN(C)C)/C=C/C(=O)O1 (some centres not stated) | 27.7 | 8.4 µM |  | 1.42 | GI50 (DMS 273 small cell lung): 3.77 µM; GI50 (LXFL 529 NSCLC): 0.417 µM; GI50 (MDA-MB-231 breast): 0.148 µM; TGI (MDA-MB-231 breast): 0.806 µM; GI50 (MDA-MB-435): 0.408 µM; TGI (MDA-MB-435): > 100 µM; GI50 (MDA-N): 0.427 µM; TGI (MDA-N): > 100 µM; GI50 (PC-3 prostate): 0.261 µM; TGI (PC-3 prostate): > 100 µM; GI50 (XF 498 CNS): 0.179 µM
7 | O=C(NCCCCCCCCCCCCNC(=O)c1cnc2ccccc2n1)c1cnc2ccccc2n1 | > 100 | > 100 µM | > 100 µM |  | 
8 | CCCCCCCCCCC(=O)CCCCCCC(=O)O | 47.1 | 40.1 µM | 43.3 µM | 97.8 | 
9 | Cc1ccccc1/C=C/c1csnn1 | > 100 | > 100 µM | > 100 µM | > 100 | 
10 | O=C(CCC(=O)Nc1ccccc1C(F)(F)F)N/N=C1\C(=N\NC(=O)CCC(=O)Nc2ccccc2C(F)(F)F)C(c2ccc3c(c2)OCO3)Oc2ccccc21 (configuration not stated) | > 100 |  | > 100 µM | > 87.6 | 
11 | Cc1ccccc1NC(=O)CC1C(=O)Nc2ccccc2S1=O (configuration not stated) | > 100 | > 100 µM | > 100 µM | > 100 | 
12 | O=C1c2c(O)cccc2C(C(=O)CCCCCC(=O)C2c3cccc(O)c3C(=O)c3c(O)cccc32)c2cccc(O)c21 | 13.3 | 2.78 µM and 14.2 µM | 7.98 µM and 13.6 µM | 1.2 | GI50 (LXFL 529 NSCLC): 7.58 µM; GI50 (RXF-631 renal): 2.99 µM
13 | Cc1cc(=O)oc2c(C3=NN(C=O)C(c4ccccc4)C3)c(O)ccc12 (configuration not stated) | > 100 | > 100 µM | > 100 µM | 42.1 | TGI (MDA-MB-231 breast): > 100 µM; TGI (MDA-MB-435): > 100 µM; TGI (MDA-N): > 100 µM; TGI (PC-3 prostate): > 100 µM; TGI (T-47D breast): > 100 µM
14 | COc1ccc(C(c2ccccc2C(=O)O)c2ccc(OC)c3ccccc23)c2ccccc12 | 32.4 | 20.7 µM |  | 46.7 | 
15 | c1ccc2c(c1)[nH]c1cnc3c4ncccc4[nH]c3c12 | > 100 | > 100 µM |  | > 100 | 
16 | O=C(CCc1nc(=S)[nH][nH]1)Nc1cc(Cl)ccc1Cl | > 100 | > 100 µM | > 100 µM |  | 
17 | Cc1cccc(C(C)(C)C)c1NC(=O)C(C#N)C1=C(Cl)C(=O)c2ccccc2C1=O (configuration not stated) | 36.2 | 29.2 µM |  | 29.4 | TGI (MDA-MB-231 breast): 27.3 µM; TGI (MDA-MB-435): 30.6 µM; TGI (MDA-N): 27.4 µM; TGI (PC-3 prostate): 26.3 µM; TGI (T-47D breast): 26.1 µM
18 | Cc1noc2cccc(O)c12 | > 100 | > 100 µM |  | > 100 | 
19 | COc1cccc(/C=N/[N-]C(=O)c2ccncc2)c1[O-].[Mn+2].[OH3+] | 73.5 | > 100 µM |  | 86.9 | GI50 (DMS 273 small cell lung): 6.73 µM; GI50 (LXFL 529 NSCLC): 15.3 µM; GI50 (XF 498 CNS): 12.3 µM
20 | CC(=O)Nc1ccccc1-c1nc2ccccc2nc1-c1ccccc1 | > 100 | > 100 µM |  | > 100 | 
21 | CC(Oc1cc2oc(=O)cc(-c3ccccc3)c2cc1Cl)C(=O)O (configuration not stated) |  | > 100 µM | > 100 µM | > 100 | 
